Biological target: T1, human TrkA (Homo sapiens, UniProt P04629)
T1 construct: expressed in transfected cells; host or cells: AD293 cells
Test: TrkA Cell Based Phosphorylation Assay
Conditions: Recombinant AD293 cells overexpressing human TrkA; TrkA Y490 phosphorylation upon 6 nM NGF stimulation; Phospho-TrkA (Tyr490) sandwich ELISA
Method: Recombinant AD293 cells overexpressing human TrkA were used to determine TrkA Y490 phosphorylation upon NGF stimulation. 25 k cells plated in serum free DMEM medium in a 96 well plate were serum starved for 2 hours at 37° C. in 5% CO2 incubator. Test compounds were added to the plate at a final concentration of 2.5% DMSO and incubated for 20 min at 37° C. 6 nM NGF was added and incubated for 5 min at 37° C. The plate was immediately centrifuged at 2000 rpm for 1 min and media removed. Lysis buffer containing 1% NP-40 Substitute, 20 mM Tris (pH 8.0), 137 mM NaCl final concentrations was added, mixed for one minute and kept on ice for 15 min with shaking every 5 minutes. 100 ul of the cell lysate was added to the PathScan® Phospho-TrkA (Tyr490) Sandwich ELISA plate with precoated wells and ELISA performed according to the manufacturer's instructions for color development. IC50 was generated in Graph Pad Prism software in non linear regression format.

T1 sequence (P04629 33-796): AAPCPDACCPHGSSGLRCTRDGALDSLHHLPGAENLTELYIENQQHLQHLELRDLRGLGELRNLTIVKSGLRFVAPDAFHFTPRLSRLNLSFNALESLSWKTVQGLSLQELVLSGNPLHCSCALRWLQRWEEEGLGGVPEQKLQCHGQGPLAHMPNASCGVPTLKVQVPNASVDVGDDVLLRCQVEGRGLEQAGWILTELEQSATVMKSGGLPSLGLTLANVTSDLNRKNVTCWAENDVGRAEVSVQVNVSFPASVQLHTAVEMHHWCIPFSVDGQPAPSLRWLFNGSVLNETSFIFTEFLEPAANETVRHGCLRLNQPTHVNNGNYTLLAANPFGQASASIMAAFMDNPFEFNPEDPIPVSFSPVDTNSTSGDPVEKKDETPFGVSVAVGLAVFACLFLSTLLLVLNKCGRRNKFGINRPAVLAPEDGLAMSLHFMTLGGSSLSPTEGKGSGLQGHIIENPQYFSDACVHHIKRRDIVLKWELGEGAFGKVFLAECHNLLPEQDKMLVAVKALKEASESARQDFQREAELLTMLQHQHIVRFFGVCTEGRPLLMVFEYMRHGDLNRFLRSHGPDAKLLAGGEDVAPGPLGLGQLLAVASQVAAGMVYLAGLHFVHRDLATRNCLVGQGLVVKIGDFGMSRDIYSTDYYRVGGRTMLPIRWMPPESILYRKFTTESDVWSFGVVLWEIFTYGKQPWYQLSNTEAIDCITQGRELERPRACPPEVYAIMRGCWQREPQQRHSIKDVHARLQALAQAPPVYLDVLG

With COCCN1C[C@@H](NC(=O)Nc2cc3c(OC)cccc3nc2-c2ccccc2)[C@H](c2ccccc2)C1 [Example 16, 1-(5-Methoxy-2-phenylquinolin-3-yl)-3-((3S,4R)-1-(2-methoxyethyl)-4-phenylpyrrolidin-3-yl)urea] as the compound, how does the IC50 read?
The IC50 was 100 to 1000 nM.

For COCCN1C[C@@H](NC(=O)Nc2c(C(C)(C)C)nc(-c3cnn(C)c3)c3ccccc23)[C@H](c2ccccc2)C1 [Example 165, 1-(3-(tert-Butyl)-1-(1-methyl-1H-pyrazol-4-yl)isoquinolin-4-yl)-3-((3S,4R)-1-(2-methoxyethyl)-4-phenylpyrrolidin-3-yl)urea], which IC50 is on record?
The IC50 was 100 to 1000 nM.

For COCCN1C[C@@H](NC(=O)Nc2cccc3oc4ccccc4c23)[C@H](c2ccccc2)C1 [Example 104, 1-(Dibenzo[b,d]furan-1-yl)-3-((3S,4R)-1-(2-methoxyethyl)-4-phenylpyrrolidin-3-yl)urea], which IC50 is on record?
The IC50 was 100 to 1000 nM.

For COCCN1C[C@@H](NC(=O)Nc2c(-c3ccccc3)nc(N3CCOCC3)c3ccccc23)[C@H](c2ccccc2)C1 [Example 172, 1-((3S,4R)-1-(2-Methoxyethyl)-4-phenylpyrrolidin-3-yl)-3-(1-morpholino-3-phenylisoquinolin-4-yl)urea], which IC50 is on record?
The IC50 was less than 100 nM.

How did the IC50 turn out when COCCN1C[C@@H](NC(=O)Nc2c(-c3ccccc3)nc(C(=O)O)c3cc(F)ccc23)[C@H](c2ccccc2)C1 [Example 190, 7-Fluoro-4-(3-(1-(2-methoxyethyl)-4-phenylpyrrolidin-3-yl)ureido)-3-phenylisoquinoline-1-carboxylic acid] was run?
Its IC50 is 100 to 1000 nM.

How did the IC50 turn out when COCCN1C[C@@H](NC(=O)Nc2cc3c(nc2-c2ccccc2)CCCC3)[C@H](c2ccccc2)C1 [Example 125, 1-((3S,4R)-1-(2-Methoxyethyl)-4-phenylpyrrolidin-3-yl)-3-(2-phenyl-5,6,7,8-tetrahydroquinolin-3-yl)urea] was run?
Its IC50 is less than 100 nM.

How did the IC50 turn out when COCCN1C[C@@H](NC(=O)Nc2cc3ccccc3nc2-c2ccccc2)[C@H](c2ccccc2)C1 [Example 2, 1-((3S,4R)-1-(2-methoxyethyl)-4-phenylpyrrolidin-3-yl)-3-(2-phenylquinolin-3-yl)urea] was run?
The IC50 was less than 100 nM.

How did the IC50 turn out when COCCN1C[C@@H](NC(=O)Nc2c(-c3ccccc3)ncc3ccccc23)[C@H](c2ccccc2)C1 [Example 149, 1-((3S,4R)-1-(2-Methoxyethyl)-4-phenylpyrrolidin-3-yl)-3-(3-phenylisoquinolin-4-yl)urea] was run?
Its IC50 is less than 100 nM.

COCCN1C[C@@H](NC(=O)Nc2cc3ccccc3nc2-c2ccncc2)[C@H](c2ccccc2)C1 [Example 33, 1-((3S,4R)-1-(2-Methoxyethyl)-4-phenylpyrrolidin-3-yl)-3-(2-(pyridin-4-yl)quinolin-3-yl)urea] was tested. Which IC50 did it give?
The IC50 was greater than 1000 nM.

With COCCN1C[C@@H](NC(=O)Nc2cc3cc(OC)c(OC)cc3nc2-c2ccccc2)[C@H](c2cccc(F)c2)C1 [Example 74, 1-(6,7-Dimethoxy-2-phenylquinolin-3-yl)-3-((3S,4R)-4-(3-fluorophenyl)-1-(2-methoxyethyl)pyrrolidin-3-yl)urea] as the compound, how does the IC50 read?
Its IC50 is less than 100 nM.

From patent publication US10336723B2, “Inhibitors of TrkA kinase” (GVK BIOSCIENCES PRIVATE LIMITED, priority 2015, dated 2019)
